Data: article PMC10002375, “Synthesis of 3-(2-Alkylthio-4-chloro-5-methylbenzenesulfonyl)-2-(1-phenyl-3-arylprop-2-enylideneamino)guanidine Derivatives with Pro-Apoptotic Activity against Cancer Cells” (International Journal of Molecular Sciences, 2023)

What was measured:
[1] = system: HCT-116 (colon cancer); assay: MTT cell viability assay, HCT-116; assay type: cell-based, human; details: for Selectivity Index HCT-116/HaCaT: HCT-116 versus HaCaT, from IC50 values; for IC50: Homo sapiens, HCT-116, MTT, 72 h
Procedure: (§1) All chemicals, if not stated otherwise, were obtained from Sigma-Aldrich (St. Louis, MO, USA). The MCF-7 cell line was purchased from Cell Lines Services (Eppelheim, Germany), the HeLa and HCT-116 cell lines were obtained from the Department of Microbiology, Tumor and Cell Biology, Karolinska Institute (Stockholm, Sweden). Cells were cultured in Dulbecco’s modified Eagle’s medium (DMEM) supplemented with 10% fetal bovine serum, 2 mM glutamine, 100 units/mL penicillin, and 100 μg/mL streptomycin. Cultures were maintained in a humidified atmosphere with 5% CO2 at 37 °C in an incubator (HeraCell, Heraeus, Langenselbold, Germany).
(§2) Cell viability was determined using the MTT (3-(4,5-dimethylthiazol-2-yl)-2,5-diphenyl-tetrazoliumbromide) assay. Stock solutions of the studied compounds were prepared in 100% DMSO. […] Cells were seeded in 96-well plates at a density of 5 × 10^3 cells/well and treated for 72 h with the examined compounds in the concentration range 1–100 μM (1, 10, 25, 50, and 100 μM). Following treatment, MTT (0.5 mg/mL) was added to the medium and cells were further incubated for 2 h at 37 °C. Cells were lysed with DMSO and the absorbance of the formazan solution was measured at 550 nm with a plate reader (1420 multilabel counter, Victor, Jügesheim, Germany). […] The experiment was performed in triplicate. Values are expressed as the mean ± SD of at least three independent experiments.

[2] = system: HeLa (cervical cancer); assay: MTT cell viability assay, HeLa; assay type: cell-based, human; details: for Selectivity Index HeLa/HaCaT: HeLa versus HaCaT, from IC50 values; for IC50: Homo sapiens, HeLa, MTT, 72 h
Procedure: as §1, §2

[3] = system: HaCaT cells; assay: MTT assay with non-cancerous HaCaT cell line; assay type: cell-based; details: Homo sapiens, HaCaT, 72 h
Procedure: The important feature of new cytotoxic agents is their selective activity against cancer cells with a weak impact on the physiology of healthy cells. Determination of the selectivity of compounds 14–19 and 24–29 was done by MTT assay with the non-cancerous HaCaT cell line (Table 2). […] A similar effect was observed also for compound 26. […] Due to the excellent selectivity of compound 30 towards HCT-116 cells and at the same time high cytotoxicity towards this cell line (IC50 = 8 μM); derivative 30 may be a good hit compound for the search for chemotherapeutic agents for the treatment of colon cancer.
as §2

[4] = system: MCF-7 (breast cancer); assay: MTT cell viability assay, MCF-7; assay type: cell-based, human; details: for IC50: Homo sapiens, MCF7, MTT, 72 h; for Selectivity Index MCF-7/HaCaT: MCF-7 versus HaCaT, from IC50 values
Excerpt: The cytotoxic activity of the compounds 8–33 has been evaluated in MTT assays against three human cancer cell lines MCF-7 (breast cancer), HeLa (cervical cancer), and HCT-116 (colon cancer) and it was expressed as IC50 values in μM (Table 1).
as §1, §2

[5] = system: HCT-116 cells; assay: Mitochondrial membrane potential (JC-1, flow cytometry), HCT-116; assay type: cell-based, human; details: HCT-116, 72 h, 24 at 10 or 25 μM, 31 at 25 μM
Excerpt: (§3) A decrease in mitochondrial potential is one of the earliest hallmarks of apoptosis. A common method for indication of cells with high and low Δψm is flow cytometry combined with specific fluorescent probes, such as JC-1 (5,5′,6,6′-tetrachloro-1,1′,3,3′-tetraethylbenzimidazolylcarbocyanine iodide). JC-1 accumulates in mitochondria and forms complexes (J aggregates) with red fluorescence in healthy cells with a normal ΔΨm, whereas in apoptotic cells with a low ΔΨm exists as a monomer with green fluorescence.
(§4) Analyzed cells were seeded into wells of a 24-well plate at a density of 5 × 10^4 cells in 1000 µL, incubated overnight, and then the medium was exchanged for dilutions of reagents 24 and 31. Before the end of 72 h of incubation, MitoProbe JC-1 (25 µM) was added into each plate well. Carbonyl cyanide m-chlorophenylhydrazone CCCP (200 nM) as the mitochondrial oxidative phosphorylation uncoupler was added into the positive control 15 min before JC-1 was added. After 30 min of JC-1 staining, cells were washed with PBS and then trypsinized (Corning® 25-053CI). Cells suspended in PBS were analyzed by flow cytometry at λ excitation (ex) = 488 nm and λ emission (em) = 525/570 nm (LSR II BD Biosciences, San Jose, CA, USA).

[6] = system: MCF-7 cells; assay: Phosphatidylserine translocation (Annexin V-FITC/PI), MCF-7; assay type: cell-based, human; details: MCF-7, 72 h; 24 at 10 or 25 μM, 31 at 25 μM
Excerpt: (§5) One of the early indicators of apoptosis is the exposure of phosphatidylserine residues on the cell’s surface. Annexin V has a high affinity to phosphatidylserine and, as a conjugate to fluorescein isothiocyante (FITC), is widely used for detection of early apoptotic cells using flow cytometry. Detection of late-apoptotic or necrotic cells is achieved by using propidium iodide (PI) stain. Based on the obtained fluorescence, four subpopulations were found: PI-low/FITC-low (live cells), PI-high/FITC-low (necrotic cells), PI-low/FITC-high (early apoptotic cells), and PI-high/FITC-high (late apoptotic cells).
(§6) Analysis was performed using FITC-conjugated annexin-V (Annexin V-FITC Apoptosis Kit I, BD Biosciences, San Jose, CA, USA) according to the manufacturer’s instructions (BD Biosciences) as described previously. HeLa, MCF-7, and HCT-116, after seeding to 24-well plates (5 × 10^4/per well) and 24 h incubation, were treated for 72 h with 24 or 31 (10/25 µM or 25 µM concentration respectively). Following treatment, cells were washed in PBS, centrifuged, and then resuspended in a binding buffer. Afterward, the cells were incubated for 15 min at 37 °C with FITC-conjugated annexin-V and propidium iodide. The samples were then analyzed using a LSR II flow cytometer (BD Biosciences) using 530 ± 25 nm (Annexin V-FITC) and 575 ± 26 nm (PI).
(§7) The subpopulations were identified according to their fluorescence: PI-low/FITC-low (live cells), PI-high/FITC-low (necrotic cells), PI-low/FITC-high (early apoptotic cells), and PI-high/FITC-high (late apoptotic cells).

[7] = system: MCF-7 cells; assay: Mitochondrial membrane potential (JC-1, flow cytometry), MCF-7; assay type: cell-based, human; details: MCF-7, 72 h, 24 at 10 or 25 μM, 31 at 25 μM
Excerpt: as §3, §4

[8] = system: HeLa cells; assay: Cell cycle distribution by flow cytometry, HeLa; assay type: cell-based, human; details: 72 h
Procedure: (§8) The cell cycle distribution was measured by flow cytometry analysis after incubation of MCF-7, HeLa, and HCT-116 with compounds 24 and 31 for 72 h.

[9] = system: HeLa cells; assay: Mitochondrial membrane potential (JC-1, flow cytometry), HeLa; assay type: cell-based, human; details: 72 h, 24 at 10 or 25 μM, 31 at 25 μM
Excerpt: as §3, §4

[10] = system: MCF-7 cells; assay: Cell cycle distribution by flow cytometry, MCF-7; assay type: cell-based, human
Procedure: as §8

[11] = system: HCT-116 cells; assay: Phosphatidylserine translocation (Annexin V-FITC/PI), HCT-116; assay type: cell-based, human; details: HCT-116, 72 h; 24 at 10 or 25 μM, 31 at 25 μM
Excerpt: as §5, §6, §7

[12] = system: HeLa cells; assay: Phosphatidylserine translocation (Annexin V-FITC/PI), HeLa; assay type: cell-based, human; details: 72 h, 24 at 10 or 25 μM, 31 at 25 μM
Excerpt: as §5, §6, §7

[13] = system: HCT-116 cells; assay: Cell cycle distribution by flow cytometry, HCT-116; assay type: cell-based, human
Procedure: as §8

Compound | Selectivity Index HCT-116/HaCaT [1] | IC50 [1] [µM] | Selectivity Index HeLa/HaCaT [2] | IC50 [2] [µM] | IC50 [3] [µM] | melting point [°C] | IC50 [4] [µM] | Selectivity Index MCF-7/HaCaT [4] | change of mitochondrial membrane potential (ΔΨm) [5] | population of apoptotic cells (Annexin V-FITC/PI) [6] | change of mitochondrial membrane potential (ΔΨm) [7] | cells in sub-G1 phase ([8]; 25 μM, control 5.08%) [%] | effect on cell cycle distribution ([8]; 24 at 10 and 25 μM, 31 at 25 μM) | change of mitochondrial membrane potential (ΔΨm) [9] | cells in sub-G1 phase ([10]; MCF-7, 25 μM, 72 h) [%] | effect on cell cycle distribution ([10]; MCF-7, 72 h, 24 at 10 and 25 μM, 31 at 25 μM) | population of apoptotic cells (Annexin V-FITC/PI) [11] | population of apoptotic cells (Annexin V-FITC/PI) [12] | cells in sub-G1 phase ([13]; HCT-116, 25 μM, 72 h, control 1.15%) [%] | effect on cell cycle distribution ([13]; HCT-116, 72 h, 24 at 10 and 25 μM, 31 at 25 μM)
Cc1cc(S(=O)(=O)NC(N)=NN=C(C=Cc2ccc(O)cc2)c2ccccc2)c(SCc2ccccc2C)cc1Cl [Compound 15] | 3.3 | 10 ± 0.6 | 1.8 | 18 ± 0.5 | 33 ± 2 | 220 to 225 | 13 ± 0.4 | 2.5 | – | – | – | – | – | – | – | – | – | – | – | –
Cc1ccc(CSc2cc(Cl)c(C)cc2S(=O)(=O)NC(N)=NN=C(C=Cc2ccccc2O)c2ccccc2)cc1 [Compound 19] | 3.3 | 11 ± 0.2 | 1.6 | 23 ± 1 | 36 ± 2 | 120 to 125 | 14 ± 1 | 1.9 | – | – | – | – | – | – | – | – | – | – | – | –
COc1ccc(C=CC(=NN=C(N)NS(=O)(=O)c2cc(C)c(Cl)cc2SCc2ccc(Cl)cc2)c2ccccc2)cc1 [Compound 31] | – | 365 ± 11 | – | 110 ± 5 | – | – | 230 ± 13 | – | did not result in a loss of ΔΨm | did not cause statistically significant differences compared to the control | did not result in a loss of ΔΨm | 5.45 | does not substantially affect the cell cycle progression | did not result in a loss of ΔΨm | 2.78 | does not substantially affect the cell cycle progression | did not cause statistically significant differences compared to the control | did not cause statistically significant differences compared to the control | 1.84 | does not substantially affect the cell cycle progression
